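1) Cells in 96-well plates. 2) Compound, 48 h, 5 concentrations. 3) Linear interpolation between surrounding doses. 4) Unreached endpoint = highest concentration. GI50 = concentration required for 50% inhibition of growth. TGI marks complete inhibition of growth.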 Where a SMILES comes first, the peptide text is derived from it. The star is where a group is joined. Cbz = O=C(OCc1ccccc1)*; OBn = c1ccc(CO*)cc1
Assays:
Test in all cases: growth of human tumour cells (NCI), 48 h
[1] = system: MDA-MB-435
[2] = system: SF-295 CNS
[3] = system: HOP-92 NSCLC
[4] = system: DU-145 prostate
[5] = system: ACHN renal
[6] = system: KM12 colon
[7] = system: MDA-N
[8] = system: CAKI-1 renal
[9] = system: MALME-3M melanoma

Row | SMILES | TGI [1] | TGI [2] | TGI [3] | TGI [4] | TGI [5] | TGI [6] | TGI [7] | TGI [8] | TGI [9] | GI50 [1] | GI50 [2] | GI50 [3] | GI50 [4] | GI50 [8] | GI50 [5] | GI50 [6] | GI50 [9]
1 | CCc1nnc(CC)n1NCCCC(=O)O | > 100 µM | > 100 µM | > 100 µM | > 100 µM | > 100 µM | > 100 µM | > 100 µM | – | – | – | – | – | – | – | – | – | –
2 | COC(=O)[C@H](Cc1ccccc1)NC(=O)NCCN(CCNC(=O)N[C@@H](Cc1ccccc1)C(=O)OC)C(=O)N[C@@H](Cc1ccccc1)C(=O)OC | 45 µM | 35.3 µM | 70 µM | 41.6 µM | 51.6 µM | 39.5 µM | 32.9 µM | > 63.6 µM | 37.8 µM | – | – | – | – | – | – | – | –
3 | O=C(O)C1C(C(=O)O)C2C(=O)C=CC1N2Cc1ccccc1 (configuration not stated) | 13.4 µM | 23.4 µM | 24.6 µM | 6.17 µM | 14.2 µM | 12.7 µM | 11.4 µM | 14.5 µM | 8.73 µM | – | – | – | – | – | – | – | –
4 | C=C1C(=O)C([Si](C)(C)C)=C2C=C(C)C3(CC3)C12C (configuration not stated) | 64.3 µM | > 100 µM | – | > 100 µM | > 100 µM | > 100 µM | > 100 µM | > 100 µM | 78.7 µM | – | – | – | – | – | – | – | –
5 | O=S1(=O)c2cnccc2NC(=NCc2cccc3ccccc23)N1c1ccccc1 | > 100 µM | > 100 µM | > 100 µM | > 100 µM | > 100 µM | > 100 µM | 26.9 µM | > 100 µM | > 100 µM | – | – | – | – | – | – | – | –
6 | O=C(O)c1c[nH]c2c(Sc3ccccc3)nccc2c1=O | > 100 µM | > 100 µM | > 100 µM | > 100 µM | > 100 µM | > 100 µM | > 100 µM | > 100 µM | – | – | – | – | – | – | – | – | –
7 | COc1ccc(/C=C2/C(C)=NN(c3cccc(Cl)c3)/C2=N/c2nc3ccccc3s2)cc1 | > 100 µM | 49.5 µM | 47.7 µM | 39.4 µM | 42.2 µM | > 100 µM | 41.6 µM | 86.6 µM | – | – | – | – | – | – | – | – | –
8 | O=c1[nH]c(=O)n(C2OC(CO)C(O)C(F)C2O)cc1F (configuration not stated) | > 100 µM | > 100 µM | > 100 µM | > 100 µM | > 100 µM | – | > 100 µM | > 100 µM | > 100 µM | – | – | – | – | – | – | – | –
9 | COc1ccc(C2c3cc4c(cc3C(O)C3CCC(=O)N23)OCO4)cc1 (configuration not stated) | > 100 µM | > 100 µM | > 100 µM | > 100 µM | > 100 µM | > 100 µM | > 100 µM | > 100 µM | > 100 µM | – | – | – | – | – | – | – | –
10 | CCOC(=O)c1ccc(C(=O)OCC)n1-c1cc2cc(c1)CSCc1cc(cc(-n3c(C(=O)OCC)ccc3C(=O)OCC)c1)CSC2 | > 10 µM | > 10 µM | > 10 µM | > 10 µM | > 10 µM | > 10 µM | > 10 µM | > 10 µM | > 10 µM | – | – | – | – | – | – | – | –
11 | COC(=O)CNC(=O)C(C)NC(=O)C(CC(=O)OCc1ccccc1)NC(=O)OCc1ccccc1 (stereo not drawn) (Cbz-Asp(OBn)-Ala-Gly-OMe; configuration not given here) | > 100 µM | > 100 µM | > 100 µM | > 100 µM | – | > 100 µM | > 100 µM | > 100 µM | > 100 µM | – | – | – | – | – | – | – | –
12 | O=c1n(/N=C/c2ccccc2)c(=O)n2n1C1C=CC2CC1 | > 100 µM | > 100 µM | > 100 µM | > 100 µM | > 100 µM | > 100 µM | > 100 µM | > 100 µM | – | – | – | – | – | – | – | – | –
13 | CCOC(=O)/C(N=Nc1ccc(-n2c(C)nc3ccccc3c2=O)cc1)=C(/C)O | 59.8 µM | > 100 µM | > 100 µM | > 100 µM | > 100 µM | 37.4 µM | > 100 µM | > 100 µM | – | – | – | – | – | – | – | – | –
14 | NCCCCNCCCN1CC1 | > 94.6 µM | > 100 µM | 7.47 µM | > 29.6 µM | – | 24.4 µM | > 100 µM | 0.382 µM | > 91.9 µM | – | – | – | – | – | – | – | –
15 | Cc1nc2sc(CCl)nn2c(=O)c1Cl | 18.3 µM | 31.1 µM | 18.7 µM | 29.7 µM | 29.3 µM | 25.2 µM | 24.8 µM | 24.8 µM | 24.9 µM | – | – | – | – | – | – | – | –
16 | Cc1ccc(NCC2CC/C(=C\c3ccc(Cl)cc3)C2=O)cc1 (configuration not stated) | 35.9 µM | > 100 µM | 30.6 µM | > 80.6 µM | > 71.5 µM | 19 µM | 26.4 µM | 21.7 µM | 38 µM | – | – | – | – | – | – | – | –
17 | O=C1CSC2(CC(/C=C/c3ccccc3O)=NN2c2cccc(S(=O)(=O)O)c2)N1c1nc2ccccc2s1 (configuration not stated) | 55.7 µM | – | > 100 µM | 97.5 µM | > 100 µM | > 100 µM | > 100 µM | > 100 µM | > 100 µM | – | – | – | – | – | – | – | –

Row | SMILES | TGI [1] | TGI [2] | TGI [3] | TGI [4] | TGI [5] | TGI [6] | TGI [7] | TGI [8] | TGI [9] | GI50 [1] | GI50 [2] | GI50 [3] | GI50 [4] | GI50 [8] | GI50 [5] | GI50 [6] | GI50 [9]
18 | O=C1c2cc3c(cc2CC12Cc1cc4c(cc1C2=O)CCCC4)CCCC3 | > 100 µM | 69 µM | 50.6 µM | > 100 µM | > 100 µM | > 100 µM | > 100 µM | – | > 100 µM | – | – | – | – | – | – | – | –
19 | CC(C)OP(=O)(OC(C)C)C(C(C)C)N(C)/C(N)=N\C1=NC(C(F)(F)F)(C(F)(F)F)N=C(C(C(F)(F)F)C(F)(F)F)O1 (configuration not stated) | 3.78 µM | 18 µM | – | 25.6 µM | 8.67 µM | 14 µM | 4.91 µM | 11.2 µM | 22.7 µM | – | – | – | – | – | – | – | –
20 | O=C(O)C1CC2C3CCC2C1C3=O (configuration not stated) | > 100 µM | > 100 µM | > 100 µM | > 100 µM | > 100 µM | > 100 µM | > 100 µM | > 100 µM | > 100 µM | – | – | – | – | – | – | – | –
21 | CCOC(=O)c1cc(Sc2ccc(N)c(C(=O)OCC)c2)ccc1N | – | > 100 µM | > 100 µM | > 100 µM | > 100 µM | > 100 µM | > 100 µM | > 100 µM | > 100 µM | – | – | – | – | – | – | – | –
22 | COc1ccc(OC)c2sc(N3C(=O)/C(=C/Cc4ccco4)N=C3c3ccccc3)nc12 | 60.8 µM | > 100 µM | > 100 µM | > 100 µM | 73 µM | > 100 µM | 48.3 µM | > 100 µM | – | – | – | – | – | – | – | – | –
23 | Cn1nc(Cc2ccc(Cl)cc2)n(N)c1=O | > 100 µM | > 100 µM | – | > 100 µM | > 100 µM | > 100 µM | > 100 µM | > 100 µM | > 100 µM | – | – | – | – | – | – | – | –
24 | CC(C)c1ccccc1SC1CC(=O)CC(Sc2ccccc2C(C)C)C12O[C@H](c1ccccc1)[C@@H](c1ccccc1)O2 (some centres not stated) | 55.2 µM | > 100 µM | > 100 µM | > 100 µM | > 100 µM | > 100 µM | 47.5 µM | 62.5 µM | – | – | – | – | – | – | – | – | –
25 | O=C(c1ccc(Cl)cc1Cl)N(C(=O)N1CCC(c2ccccc2)CC1)c1ccccc1 | > 100 µM | > 100 µM | > 100 µM | > 100 µM | > 100 µM | > 100 µM | – | > 100 µM | – | – | – | – | – | – | – | – | –
26 | Cc1c(C#N)c2nnn(C)c(=O)n2c1-c1ccccc1 | > 100 µM | > 100 µM | > 100 µM | – | > 100 µM | > 100 µM | > 100 µM | > 100 µM | – | – | – | – | – | – | – | – | –
27 | N#CC(C#N)=CN1CCN(C(=O)c2ccco2)C1=S | 40 µM | > 100 µM | > 100 µM | > 100 µM | 50.5 µM | 32.2 µM | – | 30.5 µM | > 100 µM | 5.28 µM | 31.3 µM | 22.4 µM | 5.46 µM | 4.76 µM | 9.4 µM | 4.12 µM | 47.8 µM
28 | Cc1occc1C(=S)Nc1ccc(Cl)c(C(=O)OCC(F)(F)F)c1 | 37.4 µM | – | 44.1 µM | 47.1 µM | 54.1 µM | 44.4 µM | > 100 µM | 82.6 µM | 73.7 µM | – | – | – | – | – | – | – | –
29 | COc1cc2c(/C=C3/C(=O)Nc4ccc(Cl)cc43)c(Cl)n(Cc3ccccc3)c2cc1C | 6.21 µM | 7.19 µM | 25.9 µM | 16.1 µM | 6.8 µM | 5.64 µM | – | 10.6 µM | 4.38 µM | – | – | – | – | – | – | – | –
30 | NC(=O)c1cc2ccccc2oc1=Nc1ccccc1 | > 100 µM | – | > 100 µM | > 100 µM | > 100 µM | > 100 µM | > 100 µM | > 100 µM | > 100 µM | – | – | – | – | – | – | – | –
31 | CCOC(=O)NC(C(F)(F)F)(C(F)(F)F)P(=O)(OC(C)C)OC(C)C | > 100 µM | > 100 µM | – | > 100 µM | > 100 µM | > 100 µM | > 100 µM | – | > 100 µM | – | – | – | – | – | – | – | –
32 | COc1ccc2c(c1)CC[C@@H]1[C@@H]2CC[C@]2(C)C(=O)C3(CCCCC3)C[C@@H]12 | > 100 µM | > 100 µM | > 100 µM | > 100 µM | > 100 µM | > 100 µM | – | > 100 µM | > 100 µM | > 100 µM | > 100 µM | > 100 µM | > 100 µM | 31.9 µM | > 100 µM | > 100 µM | > 100 µM
33 | C[C@H]1[C@H](C)N(Cc2ccccc2)P(=O)(C(O)/C=C/c2ccccc2)N1Cc1ccccc1 (some centres not stated) | 8.79 µM | 20.1 µM | 19.7 µM | – | > 25 µM | > 25 µM | 13.6 µM | > 25 µM | 13.4 µM | – | – | – | – | – | – | – | –
34 | O=C(NC(C(F)(F)F)(C(F)(F)F)P(=O)(c1ccccc1)c1ccccc1)C(C(F)(F)F)C(F)(F)F | 37.7 µM | > 100 µM | – | > 100 µM | 30.9 µM | 56.8 µM | 44.2 µM | 0.0564 µM | 33.6 µM | – | – | – | – | – | – | – | –
